The target in one data set is T1, Simian chymase (Macaca mulatta, UniProt F6SAJ2).
T1 sequence (F6SAJ2 22-247 limits assumed): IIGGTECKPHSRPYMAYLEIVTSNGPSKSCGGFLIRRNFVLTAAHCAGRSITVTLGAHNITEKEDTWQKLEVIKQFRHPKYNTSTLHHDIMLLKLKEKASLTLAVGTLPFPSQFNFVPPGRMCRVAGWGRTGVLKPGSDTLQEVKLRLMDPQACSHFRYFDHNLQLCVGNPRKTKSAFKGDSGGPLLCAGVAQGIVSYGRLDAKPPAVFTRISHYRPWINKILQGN
In words: Measurement of inhibitory activity of simian chymase (Ang I substrate, His-Leu/OPT fluorescence). The data set is classed as biochemical, rhesus monkey.

The target in the next data set is T2, Chymotrypsin (Bos taurus, UniProt P00766).
T2 construct: Chymotrypsin Type I-S derived from bovine pancreas; purchased SIGMA Type I-S; host or cells: bovine pancreas
In words: Measurement of chymotrypsin inhibitory activity (Suc-Ala-Ala-Pro-Phe-pNA). As to conditions: Chymotrypsin Type I-S from bovine pancreas; 30 minutes at 37° C. Format: biochemical. On the procedure:
(§1) Measurement of Cathepsin G Inhibitory Activity and Chymotrypsin Inhibitory Activity
(§2) Each activity of cathepsin G or chymotrypsin was measured by determining the amount of free p-nitroaniline quantitatively using a synthetic substrate that is colorless and yields colored product upon hydrolysis, by means of a spectrophotometer. Chymotrypsin Type I-S derived from bovine pancreas was purchased from SIGMA. As cathepsin G, the product of Elastin Products Company, Inc. derived from human purulent sputum was used. Suc-Ala-Ala-Pro-Phe-pNA (manufactured by SIGMA) was used as the synthetic substrate. An inhibitory effect of a compound on each enzyme was determined by the following method.
(§3) Each test compound (5 μmol) was weighed in a test tube and dissolved into 2 mL of DMSO. […] Then, 200 μL of 1 mmol/L substrate solution was added to initiate en enzymatic reaction under a temperature of 37° C.
(§4) Based on each inhibitory ratio, IC50 value was calculated.

A further data set deals with T3, Cathepsin G (Homo sapiens, UniProt P08311).
T3 construct: the product of Elastin Products Company, Inc. derived from human purulent sputum was used; purchased Elastin Products Company, Inc; host or cells: human purulent sputum
T3 sequence (P08311 21-244): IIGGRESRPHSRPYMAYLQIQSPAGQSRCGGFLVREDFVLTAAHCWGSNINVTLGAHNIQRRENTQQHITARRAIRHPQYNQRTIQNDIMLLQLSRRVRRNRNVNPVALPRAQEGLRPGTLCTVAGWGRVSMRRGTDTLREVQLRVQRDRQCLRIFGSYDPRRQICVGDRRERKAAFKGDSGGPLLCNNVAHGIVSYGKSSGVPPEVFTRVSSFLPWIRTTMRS
In words: Measurement of cathepsin G inhibitory activity (Suc-Ala-Ala-Pro-Phe-pNA). As to conditions: cathepsin G from human purulent sputum; 60 minutes at 37° C. Format: biochemical. On the procedure:
as §1, §2, §3, §4

Data set [1] deals with canine eye postoperative adhesion model. In words: Investigation in canine eye postoperative adhesion model. The data set is classed as in vivo, beagle dog. As to conditions: sponge with saline solution 10^−4 mol/L for 3 minutes; 7 days after operation; 5-grade score 0-4; control 3.67; p<0.05. On the procedure:
Investigation in Canine Eye Postoperative Adhesion Model
A beagle dog was anesthetized and each conjunctiva of both eyes thereof was peeled in a size of 10 mm×5 mm under a stereomicroscope. At that time, Tenon was left at conjunctival side and was not left at scleral side. After a sponge immersed in a saline solution of a test compound (Compound 70) was placed at the incised part for 3 minutes, the incised part was put in one stitch with 10-0 nylon thread. The concentration of the test compound solution was 10^−4 mol/L and a saline was used in a control group (6 dogs per each group).
After 7 days from the operation, the animals were slaughtered, the eyeballs were taken out and adhesion was investigated. After the thread used at the stitching in the model preparation was cut, evaluation was carried out by pulling the conjunctiva part with tweezers and scoring the adhesion state. The score values were determined according to the following 5-grade scores, and Mann-Whitney U test was used for analyzing the data.
(§5) 1: Very weak adhesion (film-like adhesion easily releasable)
(§6) 2: Limited adhesion (strong adhesion difficult to release at only one point)
(§7) 3: Wide-range adhesion (strong adhesion difficult to release at several points)
(§8) 4: Very strong adhesion (very strong adhesion impossible to release)

In the next data set the target is T4, Human chymase (Homo sapiens, UniProt P23946).
T4 sequence (P23946 22-247): T1 sequence (F6SAJ2 22-247 limits assumed) with S29F, K63E, Y159D, L201S, K221Q, G225A
Description: Measurement of inhibitory activity of human chymase (Ang I substrate, His-Leu/OPT fluorescence).

For data set [2], the system named is rat monocrotaline-induced pulmonary hypertension model. Description: Test in rat monocrotaline-induced pulmonary hypertension model. The data set is classed as in vivo. On the procedure:
Test in Rat Monocrotaline-Induced Pulmonary Hypertension Model
Into 1.2 mL of 1 mol/L hydrochloric acid was dissolved 200 mg of monocrotaline, followed by addition of 5 mL of distilled water. The solution was neutralized with 0.5 mol/L sodium hydroxide, and further diluted with distilled water so as to be 10 mL (20 mg/mL). Moreover, a solution containing the solvent alone without monocrotaline was prepared as Solvent A. A test compound was suspended into olive oil (25 mg/mL). Furthermore, a solution containing no test compound but the solvent alone was prepared as Solvent B.
Monocrotaline (60 mg/kg-body weight) was administrated subcutaneously at the posterior region of neck of five 5-week-old SD male rats. From 3 days before monocrotaline administration to 20 days after the administration, a test compound was administered intraperitoneally twice a day at a dose of 50 mg/kg-body weight. On the next day of the final administration of the test compound, the rats were fixed supinely under anesthetization with intraperitoneal administration of sodium pentobarbital. And then blood pressure was measured with cannula inserted from left carotid artery and systolic pressure at right ventricle was measured with cannula inserted from right […] and introduced into right ventricle, via a pressure transducer by means of a pressure-strain gauge. After slaughter of the animals, the heart was removed and weight of right ventricle, weight of left ventricle and septum, and diameter and medial thickness of pulmonary artery having a diameter within a range of 50 to 150 μm were measured. Moreover, from these measured values, a weight ratio of right ventricle/(left ventricle+septum) and medial thickening ratio {(medial thickness/outer diameter of the blood vessel)×100} were determined. In this regard, a group wherein the rats to which monocrotaline was administered was treated with Solvent B alone in an amount of 2 mL/kg-body weight in the same administration schedule as above was named “Solvent-administered group”. In addition, a group wherein the rats to which Solvent A was administered in an amount of 3 mL/kg-body weight was treated with Solvent B in an amount of 2 mL/kg-body weight was named “Monocrotaline-untreated group”.

A further data set in a line: Stability in rat plasma. Format: in vitro ADME. As to conditions: 10 μg/mL, 37° C., 60 minutes, HPLC. On the procedure:
Stability of the compounds of the invention in rat plasma was investigated.
Male SD rats (7-week-old) were anesthetized with ether under over-night fasting conditions and, after an abdominal part was incised, blood was collected from aorta abdominalis using a heparinized disposable plastic syringe. The blood was centrifuged under cooling to collect a supernatant plasma. The collected plasma was stored under freezing at −30° C. and was melted before use. After a test compound was dissolved in DMSO, the solution was added to 200 μL of the plasma so as to be 10 μg/mL, followed by incubation at 37° C. After 60 minutes, the mixture was acidified by adding 200 μL of 0.1 mol/L hydrochloric acid, and then extracted twice with 2 mL of ethyl acetate. The resulting organic layer was evaporated to dryness under a nitrogen gas flow and the residue was dissolved into 200 μL of acetonitrile to prepare a sample solution. On the other hand, the test compound was dissolved into 1% acetonitrile solution of DMSO so as to be 10 μg/mL as a control solution. The sample solution and control solution was investigated by high performance liquid chromatography (hereinafter, abbreviated as HPLC). Residual ratio (%) was determined as percentage by dividing the peak area of the sample solution by the peak area of the control solution.
Column: Waters Nova Pack C18 (inner diameter: 3.9 mm, length: 150 mm)
Mobile phase A: acetonitrile/water=10/90
Mobile phase B: acetonitrile/methanol=50/50
Eluent: Mobile phase A-mobile phase B (100/0 to 0/100, linear gradient, 50 minutes)
Amount of injection: 50 μL

For a further data set, the system named is hamster adhesion model. Description: Investigation in hamster adhesion model. Format: in vivo. As to conditions: 1 mL saline solution 10^−4 mol/L intraperitoneally; 4 weeks after operation; 5-grade score 0-4; control 2.0; p<0.05. The method, then: Investigation in Hamster Adhesion Model
Five-week-old female hamster (10 hamsters per each group) was anesthetized by administering intraperitoneally pentobarbital sodium (50 mg/kg) and, after midline incision at abdominal region, the uterus was rubbed with a cotton swab. Thereafter, 1 mL of saline solution of a test compound (Compound 24: 10^−4 mol/L) was added dropwise intraperitoneally, and then the incised part was sutured. On the other hand, as a control, saline alone was added dropwise, followed by a similar treatment.
After 4 weeks from the operation, the animals were slaughtered, the abdominal part was exposed and adhesion was investigated. The adhesion was judged using the following 5-grade scoring system and the data were analyzed according to Mann-Whitney U test.
as §5, §6, §7, §8

The test system of data set [3] is rat cecum-scraped adhesion model. Description: Investigation in rat cecum-scraped adhesion model. Format: in vivo. As to conditions: 2 mL PBS solution 10^−5 mol/L intraperitoneally; 1 week after operation; control 63.6%. The method, then: Investigation in Rat Cecum-scraped Adhesion Model
Six-week-old SD rats were subjected to midline incision at lower abdominal region under pentobarbital anesthetization (70 mg/kg, intramuscular injection), and the cecum was taken out of the incised part. Two parts of serous membrane of the cecum (about 2 cm^2 each) were rubbed with a cotton swab a hundred times until petechial hemorrhage occurs, followed by dropwise addition of 100 μL of ethanol. The cecum was again set in abdominal cavity, and then, 2 mL of a phosphate buffered saline (hereinafter, abbreviated as PBS, pH 7.4) solution of a test compound (Compound 24 or 70) was added dropwise intraperitoneally, and then the incised part was sutured. The concentration of each test compound solution was 10^−5 mol/L in a control group, PBS alone was added dropwise, followed by a similar treatment. Each group had 11 or 12 rats. After 1 week from the operation, the animals were slaughtered, the abdominal part was re-incised and an adhesion state of the cecum was evaluated according to adhesion scores using the adhesion intensity and adhesion area as indexes. The score values were determined according to the following 5-grade scores. In this connection, adhered region (%) was determined as percentage of total area of the adhered parts relative to the area of the rubbed regions. […]

Where [4] appears, read: chymase from heart of rhesus monkey, 120 minutes at 37° C., read-out: Simian chymase IC50 value.
The mark [5] stands for this setting: monocrotaline-treated SD male rats, 50 mg/kg intraperitoneally twice a day, 3 days before to 20 days after monocrotaline.

Where a chain is given by its changes, count along the chain named. Where two headings read alike, the source gives them in different places.

Description for Human chymase: (§9) That is, the activity was measured by reacting free His-Leu formed together with Ang II with o-phthalaldehyde (hereinafter, abbreviated as OPT) to prepare a fluorescent derivative and determining the amount quantitatively by means of a fluorophotometer.
(§10) First, 3.6 μmol of each test compound was weighed in a test tube and was dissolved into 3 mL of DMSO. The DMSO solution was diluted 1000-fold with 20 mmol/L Tris-hydrochloric acid buffer solution (pH 8.0) containing 0.01% Triton X-100 and 0.5 mol/L potassium chloride to prepare 1.2×10^−6 mol/L solution, which was successively diluted with the buffer solution to prepare test sample solutions having concentrations of 1.2×10^−6 mol/L to 1.2×10^−9 mol/L. To 500 μL of the test sample solution of each concentration or buffer solution was added 50 μL of an enzyme solution, followed by 10 minutes of pre-incubation at 37° C. Then, 50 μL of 0.1 mmol/L Ang I solution was added to initiate a reaction. Human angiotensin I (manufactured by SIGMA) was employed as Ang I. The enzyme solution to be used for the reaction was adjusted so as to hydrolyze about 60% of substrate under the conditions, and the reaction wherein a buffer solution containing no enzyme was carried out as a blind test. […] Thereafter, the reaction mixture was centrifuged at 4° C. at 3,000 rpm for 10 minutes and 2 mL of 2 mol/L sodium hydroxide and 1 mL of methanol were added to 1 mL of the resulting supernatant. […] The measurement was repeated twice for each sample and blind test. The fluorescence intensity obtained by subtracting the average value at blind test from the average value thereof was determined as chymase activity.
(§11) In this regard, an enzymatic reaction using a buffer solution instead of the test sample solution was carried out as a control, and inhibitory ratio of chymase activity was determined as percentage by dividing the difference of subtraction of the activity at the addition of the test compound from the chymase activity at the control by the chymase activity at the control.
Description for Simian chymase: as §9, §10, §11

Regarding `Cc1c(S(=O)(=O)Nc2ccc(-c3nc(C(=O)O)cs3)cc2S(C)(=O)=O)sc2ccc(F)cc12` [Compound 70, 2-[4-(5-fluoro-3-methylbenzo[b]thiophene-2-sulfonylamino)-3-methanesulfonylphenyl]thiazole-4-carboxylic Acid], the IC50 at Simian chymase (setting [4]) is 0.0004 µM; on Chymotrypsin, more than 10 µM; on Cathepsin G, more than 10 µM; against Human chymase it was 0.007 µM. In data set [1], the average adhesion score is recorded as 2.67.

The compound `Cc1c(S(=O)(=O)Nc2ccc(-c3cnco3)cc2S(C)(=O)=O)sc2ccc(F)cc12` [Compound 48] showed a melting point of 199 to 201 °C. Moreover, the IC50 at Simian chymase (setting [4]) worked out at 0.006 µM. On Chymotrypsin, this compound came in with a half-inhibitory concentration (IC50) of more than 10 µM. Besides, the IC50 on Cathepsin G is more than 10 µM. The half-inhibitory concentration (IC50) against Human chymase was 0.045 µM.

In the case of `COC(=O)c1ccc(NS(=O)(=O)c2sc3ccc(F)cc3c2C)c(S(C)(=O)=O)c1` [Compound 17, methyl 4-(5-fluoro-3-methylbenzo[b]thiophene-2-sulfonylamino)-3-methanesulfonylbenzoate], the IC50 was 0.009 µM on Simian chymase; more than 10 µM at Chymotrypsin; more than 10 µM on Cathepsin G; 0.056 µM on Human chymase (read-out: Human cymase IC50 value, human chymase from silkworms infected with baculovirus, 120 minutes at 37° C.). For the same compound, the Medial thickening ratio in [2] ((medial thickness/outer diameter of the blood vessel)×100, pulmonary artery 50 to 150 μm, 50 mg/kg intraperitoneally twice a day) came to 10.55 ± 1.80. For the same compound, in data set [2] (monocrotaline-induced pulmonary hypertension, result in words), the “thickening of medial muscular layer (increase of medial thickening ratio)” value was “suppressed”. Also, the “Weight ratio of right ventricle/(left ventricle + septum)” value in [2] (monocrotaline-treated SD male rats, 50 mg/kg intraperitoneally twice a day) came to 0.39 ± 0.04. The same compound registered an Average blood pressure in data set [2] (setting [5]) of 111 ± 19 mmHg. Further, in data set [2] (setting [5]), the “Systolic pressure at right ventricle” value is given as 57 ± 11. For the same compound, the “Weight of right ventricle” value in [2] (setting [5]) is reported as 233 ± 24 mg.

As to `Cc1c(S(=O)(=O)Nc2ccc(-c3nc(C(=O)O)co3)cc2S(C)(=O)=O)sc2ccc(F)cc12` [Compound 24, 2-[4-(5-fluoro-3-methylbenzo[b]thiophene-2-sulfonylamino)-3-methanesulfonylphenyl]oxazole-4-carboxylic acid], the melting point lay in the range of 207 to 208 °C. In addition, on Simian chymase (setting [4]), the half-maximal inhibitory concentration (IC50) worked out at 0.002 µM. At Chymotrypsin, this compound registered a half-inhibitory concentration (IC50) of more than 10 µM. The compound further came in with a half-maximal inhibitory concentration (IC50) against Cathepsin G of more than 10 µM. The “Residual ratio in rat plasma” value in the data set “Stability in rat plasma” was determined as 100%. The compound also gave an average adhesion score in the data set with hamster adhesion model of 0.9. Besides, the “total percentage of scores 3 and 4 showing severe adhesions” value in [3] stood at 41.7%. This compound also yielded an IC50 against Human chymase of 0.037 µM.

Turning to `COC(=O)c1ccc(NS(=O)(=O)c2sc3ccc(Cl)cc3c2C)c(OC)c1` [Compound 7, Methyl 4-(5-chloro-3-methylbenzo[b]thiophene-2-sulfonylamino)-3-methoxybenzoate], the IC50 against Chymotrypsin and against Cathepsin G was more than 1 µM each time. Also, the “total percentage of scores 3 and 4 showing severe adhesions” value in data set [3] was found to be 33.3%.

Usually IC50 stands for the concentration that inhibits the measured activity by half. In general, melting point refers to the temperature of the solid-liquid transition.

The values above are taken from US7071220B2, “N-substituted benzothiophenesulfonamide derivatives” (Toa Eiyo Ltd., priority 2000, dated 2006).
